From paper PMC9786170, “The Pharmacological Potential of Novel Melittin Variants from the Honeybee and Solitary Bees against Inflammation and Cancer” (Toxins, 2022)
Entries after “also recorded” stand apart in the source; their conditions may differ.

Experiments:
non-cancer cells = test: Viability of non-cancer cells (RAW264.7, HEK293T, HMEC, HUVEC), overall statements; type: cell-based
Text: First, we studied the activity of the melittin peptides on the viability of non-cancer cells. The toxicity of all melittin variants was investigated in monocyte/macrophage-like cells (RAW264.7), human embryonic kidney 293 cells (HEK293T), human microvascular endothelial cells (HMEC), and primary human umbilical vein endothelial cells (HUVECs).
For assessing the cytotoxicity of all peptides, various cell types and assays were utilized. To determine the cell viability of HEK293T and RAW246.7 cells, the Orangu^TM assay (Cell Guidance Systems Ltd., Cambridge, UK) was used, as previously described. 2 × 10^5 HEK293T or 2 × 10^5 RAW246.7 were seeded in 96-well plates. […] After incubation, absorbance was measured at a wavelength of 450 nm with a reference at 650 nm at an EnSpire 2300 Multimode Plate Reader (Perkin Elmer, Lübeck, Germany). To calculate cell viability, the absorbance of vehicle-treated cells was set to 100%, and the melittin derivates-treated samples were correlated to them.
HMECs (2000 cells/well) were seeded into collagen-coated 96-well plates and grown for 24 h. […] Absorbance was measured at 590 nm using a plate reader (Infinite F200Pro, Tecan, Männedorf, Switzerland). The proliferation percentage was calculated by normalizing to the untreated control (24 h) and compared to the DMSO control (0.03%) of 72 h incubation. […]

RAW264.7 cells = test: NO inhibition assay (LPS-stimulated, Griess); type: cell-based, murine; conditions: RAW264.7, peptide 30 min, then 100 ng/mL LPS 24 h
Protocol: (§1) Figure 4 Influence of melittin derivates on inflammation-associated cell functions. (A,B) For the NO induction assay (A), RAW264.7 cells were treated with melittin peptides in the indicated concentrations for 24 h. For the NO inhibition assay (B), RAW264.7 cells were pretreated with melittin peptides in the indicated concentrations for 30 min and then stimulated with 100 ng/mL LPS for 24 h. NO was detected in the supernatant using the Griess method. […] THP-1 cell adhesion under static conditions. HUVECs were grown to confluence, preincubated with bee venoms for 30 min, and activated with TNF (10 ng/mL) for 24 h. For the leukocyte adhesion assay, untreated THP-1 cells were stained with CellTracker Green and were allowed to adhere to the treated HUVECs for 5 min. The adhesion of leukocytes onto Ecs was quantified by fluorescence measurements for all cell adhesion experiments. Data are expressed as means ± SEM, (A,B) n = 3, (C) n = 2. * p ≤ 0.05 vs. TNF (positive) control.
2 × 10^4 RAW264.7 macrophages/well were plated in a 96-well plate and cultured for 24 h at 37 °C. To investigate if the melittin peptides induce nitrogen oxide (NO) synthesis, the melittin peptides, control (DMSO), and positive control (100 ng/mL lipopolysaccharide (LPS)) were added. To evaluate the effect of melittin peptides on inhibiting NO synthesis, the cells were pre-incubated with peptides or control (DMSO) for 30 min before 100 ng/mL LPS were added. After 24 h supernatants were collected and stored at −80 °C.
NO was determined with the Griess method. Briefly, for the standard curve, different concentrations of sodium nitrite (0–50 µM) were prepared in the medium. A total of 80 µL cell supernatant or standard sample were added to a 96-well microplate and subsequently, 20 µL sulfanilamide solution (120 mg sulfanilamide in 30 mL 1 N hydrochloric acid) and 20 µL naphthylenediamine solution (180 mg N-(1-naphthyl)ethylenediamine dihydrochloride in 30 mL water) were added. After 15 min of incubation, the absorbance (540 nm) was measured with the EnSpire Plate Reader (PerkinElmer, Waltham, MA, USA). For the induction assay, the NO levels of the melittin peptides-treated samples were related to the DMSO-treated sample. For the inhibition assay, the NO levels of the melittin peptides-treated cells were correlated with the LPS-treated samples.

[1] = tested on: TNF-activated EC monolayer; test: Adhesion of THP-1 leukocytes onto TNF-activated endothelial cells; type: cell-based, human; conditions: peptide 30 min, TNF 10 ng/mL 24 h, THP-1 adhesion 5 min, static, fluorescence, n = 2
Protocol: as §1
For the investigation of leukocyte adhesion under static conditions, HMEC-1 cells were seeded into 96-well plates and cultured until they became confluent. […] Then, the fluorescence signal from adherent THP-1 cells was measured by a Tecan Infinite F200 Pro microplate reader (Tecan, Männedorf, Switzerland) (excitation: 485 nm, emission: 535 nm).

Substance | reduction of viability (non-cancer cells; Discussion, cell line not given) [%] | inhibition of LPS-induced NO synthesis (RAW264.7 cells; n = 3, listed as Melittin) | inhibition of LPS-induced NO synthesis (RAW264.7 cells; n = 3, listed as melittin) | viability of non-cancer (healthy) cells (non-cancer cells; summary statement, Figure 6) | adhesion of THP-1 leukocytes onto endothelial cells [1] | inhibition of LPS-induced NO synthesis (RAW264.7 cells; n = 3)
melittin [Melt, reference compound] | 90 | prevent the LPS-induced NO release | prevented LPS-induced NO synthesis in a concentration-dependent manner |  |  | 
xylopin [Xac4] |  |  |  | without harming healthy cells | reducing the inflammation-associated interaction of endothelial cells with leukocytes | prevented LPS-induced NO synthesis in a concentration-dependent manner; also recorded: reducing the inflammation-associated interaction of endothelial cells with leukocytes and NO synthesis
